Source: ChEMBL document CHEMBL5725990, “Inhibitors of Bruton's tyrosine kinase” (2017)

Molecular target: Tyrosine-protein kinase BTK (Homo sapiens, UniProt Q06187)
Assay: Btk In Vitro Inhibitory Assay: Human Btk kinase (Genbank accession # NP_000052) was purified from insect cells as a full-length construct containing a N-terminal 6×-His tag. Btk kinase activity was determined using a radiometric filter binding assay. Measurements are performed in a low μL reaction volume 384-well assay plates. BTK enzyme (8 nM final in reaction), inhibitor (at requested doses), and 0.2 mg/mL peptide substrate (Poly-Glu-Tyr, 4:1 ratio) are incubated in a reaction buffer composed of 20 mM Hepes (pH 7.5), 10 mM MgCl2, 1 mM EGTA, 0.02% Brij35, 0.02 mg/ml BSA, 0.1 mM Na3VO4, 2 mM DTT, 1% DMSO for 15 min. followed by addition of 1 μM ATP to start the assay. Kinase reactions are carried out for 120 min. at room temperature. The reaction was stopped by spotting of reaction sample onto P81 cationic exchange paper (Whatman). Unbound phosphate was removed by extensive washing of filters in 0.75% Phosphoric acid.

Tyrosine-protein kinase BTK, sequence (Q06187 whole entry): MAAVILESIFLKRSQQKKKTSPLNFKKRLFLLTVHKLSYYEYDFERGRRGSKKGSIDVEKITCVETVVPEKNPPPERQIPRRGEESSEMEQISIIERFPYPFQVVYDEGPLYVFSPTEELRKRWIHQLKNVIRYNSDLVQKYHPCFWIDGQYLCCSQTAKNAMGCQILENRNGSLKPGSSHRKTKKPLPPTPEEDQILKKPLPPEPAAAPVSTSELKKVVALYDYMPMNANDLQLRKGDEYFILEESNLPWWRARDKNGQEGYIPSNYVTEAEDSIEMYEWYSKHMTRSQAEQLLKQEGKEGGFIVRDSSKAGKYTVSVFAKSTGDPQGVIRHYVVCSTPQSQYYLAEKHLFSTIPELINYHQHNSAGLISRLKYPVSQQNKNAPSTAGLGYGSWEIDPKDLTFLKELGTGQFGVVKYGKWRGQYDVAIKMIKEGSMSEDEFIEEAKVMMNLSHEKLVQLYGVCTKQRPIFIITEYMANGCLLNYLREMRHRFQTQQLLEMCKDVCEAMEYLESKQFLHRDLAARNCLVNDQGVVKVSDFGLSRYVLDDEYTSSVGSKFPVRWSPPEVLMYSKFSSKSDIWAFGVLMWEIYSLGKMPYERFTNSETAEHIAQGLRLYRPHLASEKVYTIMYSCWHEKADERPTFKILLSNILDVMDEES

NC(=O)c1nnc(N2CCC[C@@H](NC(=O)c3ccc4nccn4c3)C2)nc1Nc1ccc(C(=O)N2CCOCC2)cc1
IC50: < 0.01 µM

NC(=O)c1ncc(N2CCC[C@@H](N3CCN(c4cccc(Cl)c4)C3=O)C2)nc1Nc1ccc(C2CCN(C3CCCC3)CC2)cc1
IC50: < 0.01 µM
